Like-named read-outs stand apart in the source and are kept apart here.
What was measured:
HUVEC = HUVEC Cell Viability (CV) assay; format: cell-based, human; conditions: for IC50: Homo sapiens, alamarBlue
Procedure: Cells are seeded at 10,000 cells/well in 96-well plates in HUVEC specific cell culture media. Cells are plated and cultured overnight (16-24 h) at 37° C. After the overnight culture, cells are washed and fed with the Assay Medium. Test compounds are applied and incubated with the cells for the designated time period, after which the cell viability is measured by alamarBlue method. […] The final DMSO concentration is 1%.
Fluorescence readings are recorded after the test compound and alamarBlue incubation. The excitation and emission wavelengths are 530 nm and 590 nm, respectively.
The percent of control is calculated by comparing the readings in the presence of the test compound to the vehicle control. Subsequently, the percent inhibition is calculated by subtracting the percent control activity from 100. IC50 values (concentration causing a half-maximal inhibition of the control value) are determined by non-linear regression analysis of the concentration-response curves using the Hill equation.
The reference compound used for this assay is Staurosporine.

[1] = test system: HUVEC (human umbilical venous endothelial cells); experiment: HUVEC Tube Formation assay; format: cell-based; conditions: 18 h incubation, read-out: Tube formation GI50
Procedure: HUVEC (human umbilical venous endothelial cells, 1.5×10^4/well, ATCC CRL-1730) are placed in an earlier prepared 96-well plate. Test substance and/or vehicle is then added to each well in a final concentration of 0.4% DMSO in growth medium under an atmosphere of 5% CO2 at 37° C. After an 18 h incubation period, morphology of the endothelial cell tubes, which resemble a capillary-like network, are evaluated by a confocal high-content imaging system. Disruption (anti-angiogenesis) of total tube length is measured from each photograph and determined relative to the vehicle control group. […] Compounds are screened at 30, 3, 0.3, 0.03 and 0.003 μM (or μg/mL) in triplicate.

[2] = test system: SC-hCMs (stem cell cardiomyocytes); experiment: Cardiomyocyte assay (CRL), iPSC cardiomyocytes; format: cell-based, human; conditions: for effect on sodium spike amplitude vs. control (given as reduction for nilotinib and Example 39): 10 μM after 48 hours; for ΔΔ Na Spike Amp at 10 μM, 48 h (%): corrected by time matched controls
Procedure: All measurements were performed at physiological temperature in a tissue culture incubator (37° C.; 5% CO2). Test article, positive controls and vehicle were added in a sterile tissue culture hood.
At least 10 h before compound addition SC-hCMs were exposed to the fresh culture medium. Before compound addition a one-minute recording of field potentials and impedance signals (baseline) was obtained. Test articles, vehicle and positive controls were added as a 2× concentration. One-minute recordings were obtained 0.5, 1, 2, 24 and 48 h after test article addition.
At the time of drug application, culture medium was added to an independent 96 well plate that was incubated in a tissue culture incubator for 48 h. This culture medium was used as the blank of the cTnI release assay.
After the 48 h exposure recording, 150 μL of each well was centrifuged to remove debris. The supernatant was collected and frozen for later cTnI content analysis using an ELISA plate according the manufacturer's instructions (Abcam, cat #ab200016).
Data was stored on the Charles River Laboratories computer network for off-line analysis. Data acquisition was performed using RTCA Cardio Software.
Data analysis was performed using RTCA Cardio Software, Microsoft Excel and Matlab scripts. Data were reported as mean±SEM.
The following field potential parameters were quantitated: Sodium Spike amplitude, Sodium Spike Rate, field potential duration (FPD), Bazett corrected field potential duration (FPDcB), and dysrhythmic events if present.
The following impedance parameters were quantitated: Cell Index, peak amplitude, relaxation from peak to 50% amplitude (Rel50) and twitch duration.
The sodium spike is the voltage signal produced by the propagation of the depolarizing wave (positive peak) and the local activation of sodium channels (negative peak). The sodium spike amplitude is the voltage difference (in […]) between the positive and negative peaks of the sodium spike. The Sodium Spike Rate is a measure of the rate of sodium spike generation (spikes/min) produced by the spontaneous beating of stem cell cardiomyocytes.
Abnormal rhythm activity was characterized by the presence of the following proarrhythmic markers:
Triggered activity: Triggered activity (TA) is activity characterized by the presence of voltage oscillations during the repolarization period (Early After Depolarizations, EADs) or after the repolarization is completed (Delayed After Depolarizations, DADs). They are produced by different mechanisms. EADs are due to reactivation of sodium and calcium currents due to prolongation of the action potential. DADs are due to transient releases of calcium from intracellular calcium stores. Both EADs and DADs can trigger action potentials (ectopic beats, EB).
Impedance instability: Impedance instability (II) consist of small oscillations of the impedance signal during the slower relaxation phase of the impedance twitch sometimes associated with small oscillations of the field potential (FPO). […] II informs about the possibility of drug-induced delayed repolarization setting the background where more robust proarrhythmic markers like EADs and DADs occur.
The SEM of the difference was calculated according to the following equation ΔΔSEM=(SEMtreatment2+SEMcontrol2)0.5.
The statistical analysis includes 1) a Student paired t-test to evaluate the changes respect to baseline and, 2) a multi-comparison analysis (Dunnett's test) of A % changes respect to time matched controls. An alpha probability of 0.05 was considered significant.

hERG ion channel = hERG ion channel (Homo sapiens, UniProt Q12809); experiment: hERG QPatch automated patch clamp; format: cell-based; conditions: CHO cells stably expressing hERG, QPatch 48, tail current
Chain of hERG ion channel (Q12809 whole entry): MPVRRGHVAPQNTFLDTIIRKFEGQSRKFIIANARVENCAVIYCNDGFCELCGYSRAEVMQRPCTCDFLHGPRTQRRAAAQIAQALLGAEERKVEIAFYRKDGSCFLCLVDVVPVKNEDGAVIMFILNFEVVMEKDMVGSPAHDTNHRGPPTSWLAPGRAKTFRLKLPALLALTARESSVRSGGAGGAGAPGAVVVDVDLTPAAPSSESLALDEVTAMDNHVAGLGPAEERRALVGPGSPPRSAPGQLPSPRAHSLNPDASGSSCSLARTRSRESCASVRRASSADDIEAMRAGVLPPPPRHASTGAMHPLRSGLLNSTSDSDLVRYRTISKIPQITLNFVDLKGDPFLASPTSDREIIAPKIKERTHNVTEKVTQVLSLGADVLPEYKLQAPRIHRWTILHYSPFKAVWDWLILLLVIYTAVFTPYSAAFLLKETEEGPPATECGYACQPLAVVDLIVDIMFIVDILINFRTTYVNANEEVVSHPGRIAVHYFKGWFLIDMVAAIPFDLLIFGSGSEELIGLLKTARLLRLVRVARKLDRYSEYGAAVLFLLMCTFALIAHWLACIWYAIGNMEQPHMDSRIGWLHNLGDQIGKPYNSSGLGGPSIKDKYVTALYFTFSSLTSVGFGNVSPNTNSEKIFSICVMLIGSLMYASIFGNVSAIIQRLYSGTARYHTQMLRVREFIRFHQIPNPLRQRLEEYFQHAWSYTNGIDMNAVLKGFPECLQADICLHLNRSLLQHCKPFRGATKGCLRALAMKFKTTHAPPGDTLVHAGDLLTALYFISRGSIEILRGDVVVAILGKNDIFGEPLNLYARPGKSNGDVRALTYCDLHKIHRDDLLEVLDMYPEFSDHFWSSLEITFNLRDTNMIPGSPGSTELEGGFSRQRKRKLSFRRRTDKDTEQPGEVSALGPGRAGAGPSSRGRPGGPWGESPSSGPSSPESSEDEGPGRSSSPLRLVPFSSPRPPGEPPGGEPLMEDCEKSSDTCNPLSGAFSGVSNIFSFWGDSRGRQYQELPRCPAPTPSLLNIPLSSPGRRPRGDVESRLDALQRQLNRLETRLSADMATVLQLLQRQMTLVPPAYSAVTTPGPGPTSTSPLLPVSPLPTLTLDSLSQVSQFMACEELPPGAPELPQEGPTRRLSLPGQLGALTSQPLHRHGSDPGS
Procedure: hERG IC50 data was supplied by Metrion using their standard assay protocol briefly detailed below.
hERG ion channel screening was assayed in CHO cells stably expressing the human ether-á-go-go related gene, using the QPatch 48 automated, chip-based planar patch clamp device. A Gigaohm seal between the cell membrane and treated silicon surface was obtained and specific external and internal buffered solutions applied to cells prior to recording. Following baseline vehicle treatment, compounds were applied in increasing concentrations (8 pt CRC), effects on hERG tail current amplitudes were measured in two-minute recordings.

[3] = molecular target: T1, recombinant human P450 enzyme 1A1 (Homo sapiens, UniProt P04798); experiment: Formation of reactive metabolites (glutathione adduct) by CYP1A1 with human liver cytosol; format: in vitro ADME; conditions: 50 μM, human liver cytosol + recombinant CYP1A1, NADPH and GSH, 60 min
T1 construct: host or cells: Bacterial membranes (bactosomes), inferred from the named control preparation
T1 sequence (P04798 1-512): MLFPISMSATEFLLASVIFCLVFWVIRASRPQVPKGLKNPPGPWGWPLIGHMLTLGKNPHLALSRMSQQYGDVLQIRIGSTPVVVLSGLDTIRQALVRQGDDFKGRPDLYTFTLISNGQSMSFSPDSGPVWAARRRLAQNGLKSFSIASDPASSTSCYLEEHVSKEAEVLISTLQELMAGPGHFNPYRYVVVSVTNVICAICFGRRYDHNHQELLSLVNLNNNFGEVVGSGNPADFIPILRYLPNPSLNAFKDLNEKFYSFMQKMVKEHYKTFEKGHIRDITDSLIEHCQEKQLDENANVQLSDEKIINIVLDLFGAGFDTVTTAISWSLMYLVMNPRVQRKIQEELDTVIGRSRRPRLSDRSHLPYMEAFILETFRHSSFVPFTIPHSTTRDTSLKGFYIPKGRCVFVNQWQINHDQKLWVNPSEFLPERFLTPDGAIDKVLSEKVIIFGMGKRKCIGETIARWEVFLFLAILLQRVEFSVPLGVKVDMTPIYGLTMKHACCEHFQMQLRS
Procedure: Investigations into the potential for test compound to form a reactive metabolite were performed using an adapted method detailed by De Lin et al. Briefly, test compound was pre-incubated (n=2; 50 μM substrate concentration) at 37° C. for 5 min with mixed-gender human liver cytosol (1 mg/mL total protein concentration) in 100 mM phosphate buffer (pH 7.4) with 5 mM MgCl2 in the presence of recombinant human P450 enzyme 1A1 (100 nM), in the presence and absence of 5 mM glutathione. At the end of the pre-incubation period, 2 mM NADPH was added to each sample and the mixture incubated at 37° C. for 60 min. Immediately following the addition of NADPH and after the 60 min incubation period, aliquots of each sample were mixed with MeCN (containing internal standard) to terminate the reaction and precipitate the proteins.
Samples were mixed, centrifuged and following appropriate dilution, supernatants were analysed by LC-MS utilising a high-resolution mass spectrometer to perform metabolite identification and characterisation analysis.

[4] = test system: HUVEC (human umbilical venous endothelial cells); conditions: HUVEC tube formation reference; read-out: expected GI50 of reference compound; cited from earlier work

SMILES | IC50 (HUVEC) | GI50 [1] | effect on sodium spike amplitude vs. control (given as reduction for nilotinib and Example 39) [2] | Proarrhythmic Markers at 10 μM, 48 h [2] | ΔΔ Na Spike Amp at 10 μM, 48 h (%) [2] | IC50 (hERG ion channel) | effect on cell viability compared to the compounds of the invention (HUVEC) | cTnI release / secretion ([2]; 10 μM (48 h), relative to vehicle) | formation of direct glutathione adduct [3] | formation of direct glutathione adduct ([3]; listed as ponatinib) | GI50 [4]
Cc1ccc(C(=O)Nc2cn3c(n2)COCC3(C)C)cc1C#Cc1cccnc1 [Example 39, N-(5,5-dimethyl-6,8-dihydroimidazo[2,1-c][1,4]oxazin-2-yl)-4-methyl-3-[2-(3-pyridyl)ethynyl]benzamide] | 21 µM | > 30 µM | 43% | Not Observed | −43.3% | > 10 µM |  |  |  |  | 
Cc1ccc(C(=O)Nc2cc3n(n2)CCCC3(F)F)cc1C#Cc1cccnc1 [Example 97, N-(4,4-difluoro-6,7-dihydro-5H-pyrazolo[1,5-a]pyridin-2-yl)-4-methyl-3-[2-(3-pyridyl)ethynyl]benzamide] | 3.6 µM | > 10 µM | 2.2% | Not Observed | 2.20% | > 10 µM |  |  |  |  | 
Cc1ccc(C(=O)Nc2ccc(CN3CCN(C)CC3)c(C(F)(F)F)c2)cc1C#Cc1cnc2cccnn12 [Ponatinib, reference compound] |  |  |  |  |  |  | ~10 fold | increased troponin (cTnI) secretion | forms a glutathione adduct | forms a significant direct glutathione adduct | 
Cc1ccc(C(=O)Nc2ccc(S(=O)(=O)O)c3cc(S(=O)(=O)O)cc(S(=O)(=O)O)c23)cc1NC(=O)c1cccc(NC(=O)Nc2cccc(C(=O)Nc3cc(C(=O)Nc4ccc(S(=O)(=O)O)c5cc(S(=O)(=O)O)cc(S(=O)(=O)O)c45)ccc3C)c2)c1 [Suramin] |  |  |  |  |  |  |  |  |  |  | 15 µM

From US20230014226A1, “NEW COMPOUNDS AND METHODS” (BenevolentAI Bio Limited, priority 2019, published 2023)
